Experimental data taken from patent US8703698B2, “Compositions and methods for treating atherosclerosis” (The University of Chicago, priority 2003, dated 2014).

Columns and labels:
[1] = test system: cholesterol ester hydrolase; assay: Rate of hydrolysis of cholesteryl ester in cholesterol-laden J774 cells (cholesterol ester hydrolase activity); type: cell-based, murine
THP-1 cells = assay: Cholesterol efflux from cholesterol-laden human THP-1 cells; type: cell-based; conditions: liposomal formulations; cholesterol-laden THP-1 cells differentiated with phorbol myristate acetate
Procedure: These monocytes were differentiated into macrophages with phorbol myristate acetate (100 nM). In these experiments, cholesterol-laden human THP-1 cells were exposed to liposomal formulations comprising a peptide corresponding to amino acids 1-20 of murine SAA2.1 (SEQ ID NO:1), a peptide corresponding to amino acids 74-103 of murine SAA2.1 (SEQ ID NO:4), a peptide corresponding to amino acids 1-20 of murine SAA1.1 plus an arginine at the N-terminus (SEQ ID NO:7), or a peptide corresponding to amino acids 1-20 of murine SAA2.1 (SEQ ID NO:1) and a peptide corresponding to amino acids 74-103 (SEQ ID NO:4) of murine SAA2.1. Results from these experiments are depicted in FIG. 4. […] Studies were carried out to determine whether murine SAA2.1 increases cholesterol export from a human derived monocytic cell line, THP-1 (obtained from American Type Culture Collection, Manassas, Va.; ATCC#TIB-202). Human monocytes were cultured in T-75 flasks with 30 ml RPMI 1640 medium containing 2 mM L-glutamine, 4.5 g/L glucose, 10 mM HEPES, 1.0 mM […] and supplemented with 0.05 mM 2-mercaptoethanol and 10% fetal bovine serum. Subsequently, five million cells were placed in each well of a 6-well tissue culture plate. The monocytes were differentiated into macrophages by treatment with phorbol myristate acetate (100 nM). THP-1 macrophages were enriched with cholesterol by incubating with red blood cells membrane fragments (175 μg as cholesterol) that had been previously labelled with 0.5 μCi/mL[^3H]-cholesterol at 37° C. for 6 hours in 0.2% bovine serum albumin, followed by an overnight equilibration period. Cells were washed four times with PBS/BSA prior to efflux studies. Cells were then incubated at 37° C. with 2 mL RPMI-BSA containing 5% LPDS and 50 μg/mL of either native HDL, SAA-HDL, liposomes containing 2 μmoles of apoA-I, SAA1.1 or 2.1, or liposomes containing 0.5 μmoles synthetic peptides corresponding to amino acid residues 1-20 (SEQ ID NO:1), 21-50 (SEQ ID NO:2), 51-80 (SEQ ID NO:3) or 74-103 (SEQ ID NO:4) of murine SAA2.1. The efflux media were collected at 0, 1, 2, 4, 8, 16 and 24 hours, centrifuged to remove cell debris, and then used to measure the exported counts. […] A portion of the cells was lysed in 0.1N NaOH to estimate both the remaining radioactivity and the cellular protein content. Cellular lipids were extracted from the remaining portion of the cells and analyzed by thin-layer chromatography as described by Mendez et al. (J. Clin. Invest. 1994 94:1698-1705) and Oram et al. (Arterioscler. Thromb. 1991 11:403-414). The radioactivity in appropriate spots was measured to determine total cellular cholesterol counts. Efflux of radioactive label to the medium was calculated as the percentage of total counts (cell+medium counts) in each well.

| Molecule | increase in cholesterol ester hydrolase activity ([1]; liposomes containing 0.5 μl synthetic peptide, cholesterol-laden J774 cells, Sandoz 58-035 present, 0 to 24 hours) [fold] | cholesterol efflux, time course (FIG. 4) (THP-1 cells) | rate of hydrolysis of [14C]-labeled cholesteryl oleate versus protein-free liposomes ([1]; liposomes containing 0.5 μl synthetic peptide, J774 cells, Sandoz 58-035 present) | cholesterol ester hydrolase activity in intact cholesterol-laden macrophages ([1]; lipoproteins or protein liposomes, tissue culture) |
| --- | --- | --- | --- | --- |
| DTIADQEANRHGRSGKDPNYYRPPGLPDKY [SEQ ID NO:4, synthetic peptide, residues 74-103 of murine SAA2.1] | 3 | demonstrated to increase cholesterol efflux | – | – |
| GFFSFVHEAFQGAGDMWRAY [SEQ ID NO:1, synthetic peptide, residues 1-20 of murine SAA2.1] | – | demonstrated to increase cholesterol efflux | no significant differences | – |
| GFFSFVHEAFQGAGDMWRAYTDMKEANWKNSDKYFHARGNYDAAQRGPGGVWAAEKISD GREAFQEFFGRGHEDTIADQEANRHGRSGKDPNYYRPPGLPDKY (protein, listed as Mus musculis, full length murine serum amyloid A isoform 2.1 purified from acute phase plasma) GFFSFVHEAFQGAGDMWRAYTDMKEANWKNSDKYFHARGNYDAAQRGPGGVWAAEKISDGREAFQEFFGRGHEDTIADQEANRHGRSGKDPNYYRPPGLPDKY | – | – | – | enhancement of cholesterol ester hydrolase activity |
